Laboratory results published in patent publication US6221637A, “Xanthene derivatives, their production and use” (Takeda Chemical Industries, Ltd., priority 1996, dated 2001).
Converted amounts (≈) assume the structure as drawn.

Columns and labels:
[1] = target: T1, binding of B7-1 to CD28 (Homo sapiens, UniProt P10747+P33681); experiment: Binding inhibition test using soluble B7-1-Ig; details: 10 μg/ml soluble B7-1-Ig; fixed CD28-expressing CHO cells; 30 minutes at room temperature; read-out: IC50 (concentration for 50% inhibition of binding) (converted)
T1 construct: ligating the Fc region of human IgG to the C-terminal side of the extracellular region of B7-1; Fc region of human IgG (from plasmid pTB1455); expressed in transfected cells; soluble B7-1-Ig made in house by sB7-1-Ig-CHO-20 and purified from its supernatant
Experimental: b) Expression of CD28 in CHO cells
Using petri dishes 10 cm in diameter, 1×10^5 dihydrofolate reductase deficient (DHFR^-) CHO cells were cultured in an αMEM medium containing 10% fetal bovine serum for 24 hours. To these cells, the CD28cDNA expression plasmid pAKKO-CD28as obtained in Reference Example 1 (10 μg) was introduced by the calcium phosphate method. Forty-eight hours later, the medium was replaced with an αMEM medium (no nucleic acid contained) containing 10% dialyzed fetal bovine serum, and cells incorporating the plasmid in their chromosome were selected. For these selected cells, CD28 expression was examined by flow cytometry (EPICS ELITE, COULTER), and cells showing high expression of CD28were obtained. These cells were cloned by the limiting dilution method to obtain CD28-CHO-11, a cell line that stably expresses high amount of CD28. […]
c) Establishment of CHO cells that produce soluble B7-1-Ig
Using petri dishes 10 cm in diameter, 1×10^5 dihydrofolate reductase deficient (DHFR^31 ) CHO cells were cultured in an αMEM medium containing 10% fetal bovine serum for 24 hours. To these cells, 10 μg of the expression plasmid encoding soluble B7-1-Ig as obtained in Reference Example 22 was introduced by the calcium phosphate method. Forty-eight hours later, the medium was replaced with an αMEM medium (no nucleic acid contained) containing 10% dialyzed fetal bovine serum, and cells incorporating the plasmid into their chromosome were selected. For these selected cells, the amount of soluble B7-1-Ig produced in the culture supernatant was measured by EIA, and cells showing high productivity were obtained. These cells were cloned by the limiting dilution method to obtain sB7-1-Ig-CHO-20, a cell line that stably produces soluble B7-1-Ig. […]
d) Preparation of soluble B7-1-Ig
Using petri dishes 15 cm in diameter, the soluble B7-1-Ig-producing CHO cells obtained in term c) above (sB7-1-Ig-CHO-20) were cultured in an αMEM medium containing 10% fetal bovine serum to yield 5 l of culture supernatant. This culture supernatant was crudely purified using a protein G column (Chromatop Superprotein G, […] I.D.×10 cm, NGK Insulators, Ltd.) and further purified by gel filtration chromatography (TSKgel G3000SW, […] I.D.×[…], Tosoh) to yield 20 mg of a purified standard preparation.
Binding inhibition test using soluble B7-1-Ig
The CHO cells that expressed CD28obtained in Example 122 were suspended in an αMEM medium (no nucleic acid contained) containing 10% dialyzed fetal bovine serum, seeded into 96-well microplates (flat bottom) to 3×10^4 cells/well, and cultured in the presence of 5% CO2 at 37° C. for 48 hours. The culture supernatant was removed by aspiration from each plate to which cells adhered, followed by the addition of phosphate buffer saline (PBS) containing 0.5% paraformaldehyde to fix the cells. After this plate was washed twice with PBS containing 10% Block Ace (Snow Brand Milk Products), 10 μg/ml soluble B7-1-Ig and a sample were added to each well. Binding reaction was carried out by keeping the plate standing at room temperature for 30 minutes. After the reaction, the plate was washed twice with PBS containing 10% Block Ace (Snow Brand Milk Products), followed by the addition of peroxidase-labeledanti-human IgG (Cappel) and 2 hours of reaction. The plate was further washed twice with PBS containing 10% Block Ace (Snow Brand Milk Products), after which 100 μl of a 0.1M citrate buffer containing 6.5 mg/ml ortho-phenylenediamine dihydrochloride (Wako Pure Chemical Industries) and 0.06% hydrogen peroxide was added to each well. Twenty minutes later, the coloring reaction was stopped with 2N sulfuric acid, and the absorbance at 492 nm was determined using a plate reader (BIO-RAD Model 1450).

[2] = tested on: mice; experiment: Toxicity test; format: in vivo; details: intraperitoneally, 400 mg/kg
[3] = tested on: interleukin 2 (IL-2) production by human peripheral blood T cells; experiment: Inhibition test for interleukin 2 (IL-2) production by human peripheral blood T cells; format: cell-based; details: anti-CD3 antibody coated plates; CHO cells expressing B7-1; 48 hours, 37° C.; read-out: IC50 value (concentration for 50% suppression of interleukin-2 production)
Experimental: a) Expression of B7-1 in CHO cells
Using petri dishes 10 cm in diameter, 1×10^5 Chinese hamster ovary (CHO) cells were cultured in an αMEM medium containing 10% fetal bovine serum for 24 hours. To these cells, the B7-1 cDNA expression plasmid pME-B7-1 as obtained in Reference Example 1 (10 μg) and the neomycin resistance expression plasmid pME-neo (1 μg) were introduced by the calcium phosphate method. Forty-eight hours later, GENETICIN (G418 sulfate, GIBCO) was added to a final concentration of 0.5 mg/ml, and cells that acquired neomycin resistance were selected. For these selected cells, B7-1 expression was examined by flow cytometry (EPICS ELITE, COULTER), and cells showing high expression of B7-1 were obtained. These cells were cloned by the limiting dilution method to obtain B7-1-CHO-22, a cell line that stably expresses high amount of B7-1.
Inhibition test for interleukin 2 (IL-2) production by human peripheral blood T cells
Blood was collected from a healthy normal human, overlaid on lymphocyte separation medium (LSM, Organon Teknica Co.), and centrifuged at room temperature at 2,000 rpm for 20 minutes to obtain human peripheral blood mononuclear cells. […] The IL-2 produced in the culture supernatant was quantified using the HUMAN INTERLEUKIN-2 EIA KIT (Cayman Chemical Co.).

T1 sequence (P10747 19-220): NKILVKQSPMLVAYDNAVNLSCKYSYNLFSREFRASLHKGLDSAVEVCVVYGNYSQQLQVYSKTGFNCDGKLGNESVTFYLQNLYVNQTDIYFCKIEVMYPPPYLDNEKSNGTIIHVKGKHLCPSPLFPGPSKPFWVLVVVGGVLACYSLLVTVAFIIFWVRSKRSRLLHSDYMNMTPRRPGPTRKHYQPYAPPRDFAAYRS
T1 sequence (P33681 with tags, fused parts or gaps): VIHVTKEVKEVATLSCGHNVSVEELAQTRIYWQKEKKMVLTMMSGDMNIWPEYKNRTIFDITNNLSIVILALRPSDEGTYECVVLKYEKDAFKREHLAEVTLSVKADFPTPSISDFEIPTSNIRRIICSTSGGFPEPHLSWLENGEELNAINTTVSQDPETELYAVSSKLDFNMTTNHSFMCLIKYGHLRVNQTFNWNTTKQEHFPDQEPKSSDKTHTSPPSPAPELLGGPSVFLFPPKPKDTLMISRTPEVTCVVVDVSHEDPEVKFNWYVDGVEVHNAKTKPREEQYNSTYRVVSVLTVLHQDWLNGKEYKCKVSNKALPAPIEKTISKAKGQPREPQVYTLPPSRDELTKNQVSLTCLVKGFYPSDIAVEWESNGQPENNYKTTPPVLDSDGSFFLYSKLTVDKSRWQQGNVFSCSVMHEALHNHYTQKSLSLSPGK

Row | Compound | IC50 [1] | deaths after intraperitoneal administration [2] | IC50 [3]
1 | COC(=O)c1c(SCC(=O)O)c(O)c([N+](=O)[O-])c2oc3c(Cl)c(C)c(Cl)c(O)c3c(=O)c12 [Compound 132] | 238 nM |  | 
2 | COC(=O)c1c(SCC(=O)O)c(O)cc2oc3c(Cl)c(C)c(Cl)c(O)c3c(=O)c12 [Compound 1] | 305 nM | no animals died | 10 µg/mL (≈ 21.8 µM)
3 | COC(=O)c1c(SCC(=O)O)c(O)c(I)c2oc3c(Cl)c(C)c(Cl)c(O)c3c(=O)c12 [Compound 40] | 171 nM |  | 
4 | CCC(=O)Oc1c(Cl)c(C)c(Cl)c2oc3cc(O)c(SCC(=O)O)c(C(=O)OC)c3c(=O)c12 [Compound 27] | < 194 nM |  | 
5 | COC(=O)c1c([S+]([O-])CC(=O)O)c(O)c(I)c2oc3c(Cl)c(C)c(Cl)c(O)c3c(=O)c12 (centres unmarked) [Compound 54, methyl 2-(carboxymethylsulfinyl)-5,7-dichloro-3,8-dihydroxy-4-iodo-6-methyl-9-oxo-9H-xanthene-1-carboxylate] | < 166 nM |  | 
6 | COC(=O)c1c([S+]([O-])CC(=O)O)c(O)cc2oc3c(Cl)c(C)c(Cl)c(O)c3c(=O)c12 (centres unmarked) [Compound 17, methyl 2-(carboxymethylsulfinyl)-5,7-dichloro-3,8-dihydroxy-6-methyl-9-oxo-9H-xanthene-1-carboxylate] | < 210 nM |  | 
